Several values for one entry are separate records, joined by “and”; a condition that tells them apart may be missing. Identical values can stand only once. Bounds are passed on as bounds.

These results are taken from paper PMC12439760 (Bioorganic & medicinal chemistry, 2025).

Data set [1] deals with T1, hCB1 receptor (Homo sapiens, UniProt P21554). Description: hCB1 Gαq16-coupled calcium mobilization assay in CHO-K1 cells. The format is cell-based. Particulars: hCB1 Ca EC50, CHO cells expressing hCB1 and Gαq16, calcium mobilization. (In general: Calcium flux is commonly read through the fluorescence of an indicator in the cells.)
Data set [2] in a line: Human liver microsome. The format is in vitro ADME. Particulars: pooled human liver microsomes, pH 7.4. A general note: Microsomes from liver hold many membrane-bound enzymes, among them those of drug oxidation.
The target in data set [3] is T1, hCB1 receptor. Description: [3H]CP55940 radioligand displacement, CHO cell membranes overexpressing hCB1. The format is binding. (Loss of bound radioactivity is the signal in a displacement assay; it reports binding, not function.)
Data set [4] has as its target T2, hCB2 receptor (Homo sapiens, UniProt P34972). Description: [3H]CP55940 radioligand displacement, CHO cell membranes overexpressing hCB2. The format is binding.
The target in data set [5] is T2, hCB2 receptor. Description: hCB2 Gαq16-coupled calcium mobilization assay in CHO-K1 cells. The format is cell-based. Particulars: hCB2 Ca EC50, CHO cells expressing hCB2 and Gαq16, calcium mobilization.
Data set [6] in a line: Mouse pharmacokinetic study. The format is in vivo, C57BL/6 mice. Particulars: mice, 3 mg/kg po, data not shown.
In data set [7] the test system is CYP3A4, CYP1A2 and CYP2B6. Description: Isoform-specific CYP induction assays in HepaRG cells, overall profile. Particulars: data not shown. Format: cell-based, human.

T2 sequence (P34972 whole entry): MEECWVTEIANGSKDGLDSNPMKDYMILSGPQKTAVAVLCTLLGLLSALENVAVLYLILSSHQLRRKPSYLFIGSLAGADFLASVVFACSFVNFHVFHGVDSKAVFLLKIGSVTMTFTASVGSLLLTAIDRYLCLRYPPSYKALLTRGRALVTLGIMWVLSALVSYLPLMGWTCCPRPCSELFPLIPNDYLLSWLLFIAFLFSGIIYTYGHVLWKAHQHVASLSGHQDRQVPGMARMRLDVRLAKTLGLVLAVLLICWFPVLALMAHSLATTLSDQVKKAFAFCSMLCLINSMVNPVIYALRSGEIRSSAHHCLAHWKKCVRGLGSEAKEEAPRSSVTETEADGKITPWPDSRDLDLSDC
T1 sequence (P21554 whole entry): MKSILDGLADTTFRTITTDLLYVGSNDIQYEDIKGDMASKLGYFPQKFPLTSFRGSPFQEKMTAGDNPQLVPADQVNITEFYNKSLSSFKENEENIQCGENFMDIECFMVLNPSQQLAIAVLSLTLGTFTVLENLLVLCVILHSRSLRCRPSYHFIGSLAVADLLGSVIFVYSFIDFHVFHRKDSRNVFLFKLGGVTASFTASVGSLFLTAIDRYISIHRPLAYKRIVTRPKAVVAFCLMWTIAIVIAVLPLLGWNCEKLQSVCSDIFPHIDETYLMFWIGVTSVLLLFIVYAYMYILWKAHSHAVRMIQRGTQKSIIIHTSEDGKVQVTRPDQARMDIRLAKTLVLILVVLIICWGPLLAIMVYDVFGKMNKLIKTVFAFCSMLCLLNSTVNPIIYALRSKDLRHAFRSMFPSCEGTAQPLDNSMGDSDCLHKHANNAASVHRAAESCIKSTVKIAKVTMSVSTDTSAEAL

On to `CC(C)(NC(=O)c1nn(Cc2ccc(F)cc2)c2ccccc12)C(=O)N1CCC[C@H]1C(N)=O` [Compound 14, N-{1-[(2S)-2-Carbamoylpyrrolidin-1-yl]-2-methyl-1-oxopropan-2-yl}-1-[(4-fluorophenyl)methyl]-1H-indazole-3-carboxamide], for which the EC50 is ~20 nM and 20 nM in data set [1]; 16 ± 1 nM in data set [5]. In data set [2], this molecule returned a half-life at 1 μM of 10.2 h. The molecule further yielded a microsomal CLint at 1 μM in data set [2] of 2 µL/min/mg. The Ki was 4 nM in data set [3] and 6 nM in data set [4].

For `O=C(NCC1CCCCC1)c1nn(Cc2ccc(F)cc2)c2ccccc12` [Compound 28, N-(Cyclohexylmethyl)-1-[(4-fluorophenyl)methyl]-1H-indazole-3-carboxamide], the figures for the EC50 in data set [1] and in data set [5] were 17 ± 1 nM and 28 ± 8 nM, respectively.

Take `NC(=O)N1CCC[C@@H](CNC(=O)c2nn(Cc3ccc(F)cc3)c3ccccc23)C1` [Compound 29, N-{[(3S)-1-Carbamoylpiperidin-3-yl]methyl}-1-[(4-fluorophenyl)methyl]-1H-indazole-3-carboxamide]: the EC50 in data set [1] is 950 ± 108 nM; in data set [5] it was 178 ± 45 nM.

Consider `CC(C)(NC(=O)c1nn(Cc2ccc(F)cc2)c2ccccc12)C1CCCN(C(N)=O)C1` (stereo not shown) [Compound 31, N-[2-(1-Carbamoylpiperidin-3-yl)propan-2-yl]-1-[(4-fluorophenyl)methyl]-1H-indazole-3-carboxamide], for which the half-life at 1 μM in data set [2] amounted to 0.433 h. Moreover, the Ki worked out at 49 nM in data set [3] and 27 nM in data set [4]. Further, the EC50 in data set [5] worked out at 29 ± 4 nM.

On to `NC(=O)CN1CCC[C@@H](CNC(=O)c2nn(Cc3ccc(F)cc3)c3ccccc23)C1` [Compound 32, N-{[(3S)-1-(Carbamoylmethyl)piperidin-3-yl]methyl}-1-[(4-fluorophenyl)methyl]-1H-indazole-3-carboxamide], for which the EC50 in data set [1] is 168 ± 23 nM; in data set [5], 150 ± 6 nM.

Take `NC(=O)CN1CCC[C@H](CNC(=O)c2nn(Cc3ccc(F)cc3)c3ccccc23)C1` [Compound 33, N-{[(3R)-1-(Carbamoylmethyl)piperidin-3-yl]methyl}-1-[(4-fluorophenyl)methyl]-1H-indazole-3-carboxamide]: the EC50 came to 239 ± 76 nM in data set [1] and 170 ± 24 nM in data set [5].

With `CC(C)(NC(=O)c1nn(Cc2ccc(F)cc2)c2ccccc12)C1CCCN(CC(N)=O)C1` (stereo not shown) [Compound 34, N-{2-[1-(Carbamoylmethyl)piperidin-3-yl]propan-2-yl}-1-[(4-fluorophenyl)methyl]-1H-indazole-3-carboxamide], the values for the 50% effective concentration (EC50) in data set [1] and in data set [5] were 369 ± 57 nM and 28 ± 13 nM, respectively. Also, the half-life at 1 μM in data set [2] was below 0.333 h.

With `CC(C)(NC(=O)c1nn(Cc2ccc(F)cc2)c2ccccc12)C1CCN(C(N)=O)CC1` [Compound 36, N-[2-(1-Carbamoylpiperidin-4-yl)propan-2-yl]-1-[(4-fluorophenyl)methyl]-1H-indazole-3-carboxamide], the EC50 in data set [1] stood at 2370 ± 452 nM; in data set [5], 132 ± 49 nM.

For `O=C(NC1CCCCC1)c1nn(Cc2ccc(F)cc2)c2ccccc12` [Compound 37, N-Cyclohexyl-1-[(4-fluorophenyl)methyl]-1H-indazole-3-carboxamide], the EC50 in data set [1] stood at 23 ± 2 nM; in data set [5] it was 14 ± 3 nM.

In the case of `NC(=O)N1CCC[C@H](NC(=O)c2nn(Cc3ccc(F)cc3)c3ccccc23)C1` [Compound 38, N-[(3S)-1-Carbamoylpiperidin-3-yl]-1-[(4-fluorophenyl)methyl]-1H-indazole-3-carboxamide], the figures for the EC50 in data set [1] and in data set [5] were 541 ± 52 nM and 59 ± 1 nM, respectively.

Consider `NC(=O)CN1CCC[C@H](NC(=O)c2nn(Cc3ccc(F)cc3)c3ccccc23)C1` [Compound 40, N-[(3S)-1-(Carbamoylmethyl)piperidin-3-yl]-1-[(4-fluorophenyl)methyl]-1H-indazole-3-carboxamide], for which the values for the EC50 in data set [1] and in data set [5] were 36 ± 14 nM and 22 ± 1 nM, respectively.

As for `NC(=O)CN1CCC[C@@H](NC(=O)c2nn(Cc3ccc(F)cc3)c3ccccc23)C1` [Compound 41, N-[(3R)-1-(Carbamoylmethyl)piperidin-3-yl]-1-[(4-fluorophenyl)methyl]-1H-indazole-3-carboxamide], the half-maximal effective concentration (EC50) in data set [1] was 803 ± 73 nM; in data set [5], 33 ± 1 nM.

Turning to `CC1(NC(=O)c2nn(Cc3ccc(F)cc3)c3ccccc23)CCCN(CC(N)=O)C1` (stereo not shown) [Compound 42, N-[1-(Carbamoylmethyl)-3-methylpiperidin-3-yl]-1-[(4-fluorophenyl)methyl]-1H-indazole-3-carboxamide], the values for the EC50 in data set [1] and in data set [5] were 39 ± 1 nM and 41 ± 14 nM, respectively.

For `CC(C)(NC(=O)c1nn(Cc2ccc(Cl)cc2)c2ccccc12)c1cccc(C(N)=O)c1` [Compound 43, N-[2-(3-Carbamoylphenyl)propan-2-yl]-1-[(4-chlorophenyl)methyl]-1H-indazole-3-carboxamide], the EC50 in data set [1] and in data set [5] was above 10000 nM each time.

As for `CC(C)(NC(=O)c1nn(Cc2ccc(C#N)cc2)c2ccccc12)c1cccc(C(N)=O)c1` [Compound 44, N-[2-(3-Carbamoylphenyl)propan-2-yl]-1-[(4-cyanophenyl)methyl]-1H-indazole-3-carboxamide], in data set [1], the EC50 was 234 ± 154 nM. In data set [2], this molecule came in with a half-life at 1 μM above 3.33 h and a microsomal CLint at 1 μM below 5 µL/min/mg. Further, the EC50 in data set [5] is above 10000 nM.

Regarding `CC(C)(NC(=O)c1nn(CCc2ccc(F)cc2)c2ccccc12)c1cccc(C(N)=O)c1` [Compound 46, N-[2-(3-Carbamoylphenyl)propan-2-yl]-1-[2-(4-fluorophenyl)ethyl]-1H-indazole-3-carboxamide], the EC50 in data set [1] and in data set [5] was above 10000 nM throughout.

Turning to `CC(C)(NC(=O)c1nn(CC2CCCC2)c2ccccc12)c1cccc(C(N)=O)c1` [Compound 48, N-[2-(3-Carbamoylphenyl)propan-2-yl]-1-(cyclopentylmethyl)-1H-indazole-3-carboxamide], the half-maximal effective concentration (EC50) in data set [1] was 893 ± 192 nM; in data set [5], 613 ± 351 nM. Further, the half-life at 1 μM in data set [2] was found to be 0.367 h. Also, the microsomal CLint at 1 μM in data set [2] is 58 µL/min/mg.

With `CC(C)(NC(=O)c1nn(CCC2CCCC2)c2ccccc12)c1cccc(C(N)=O)c1` [Compound 49, N-[2-(3-Carbamoylphenyl)propan-2-yl]-1-(2-cyclopentylethyl)-1H-indazole-3-carboxamide], the EC50 in data set [1] turned out to be 383 ± 163 nM; in data set [5] it was 189 ± 10 nM.

In the case of `CCCCCn1nc(C(=O)NC(C)(C)c2cccc(C(N)=O)c2)c2ccccc21` [Compound 52, N-[2-(3-Carbamoylphenyl)propan-2-yl]-1-pentyl-1H-indazole-3-carboxamide], the concentration giving a half-maximal response (EC50) in data set [1] came out at 202 ± 16 nM. In data set [2], the half-life at 1 μM turned out to be 0.533 h and the microsomal CLint at 1 μM was found to be 19 µL/min/mg. The EC50 in data set [5] was found to be 175 ± 32 nM.

As to `CC(F)(F)CCCn1nc(C(=O)NC(C)(C)c2cccc(C(N)=O)c2)c2ccccc21` [Compound 53, N-[2-(3-Carbamoylphenyl)propan-2-yl]-1-(4,4-difluoropentyl)-1H-indazole-3-carboxamide], the EC50 in data set [1] was found to be 463 ± 187 nM; in data set [5], 3420 ± 151 nM. In addition, in data set [2], the half-life at 1 μM is 2.67 h. For the same molecule, in data set [2], the microsomal CLint at 1 μM was found to be 7.9 µL/min/mg. Also, the Ki in data set [3] worked out at 54 nM; in data set [4] it was 75 nM.

As for `CC(C)(NC(=O)c1nn(CCCCCF)c2ccccc12)c1cccc(C(N)=O)c1` [Compound 54, N-[2-(3-Carbamoylphenyl)propan-2-yl]-1-(5-fluoropentyl)-1H-indazole-3-carboxamide], the EC50 in data set [1] stood at 84 ± 6 nM. In data set [2], this molecule registered a half-life at 1 μM of 1.02 h and a microsomal CLint at 1 μM of 10 µL/min/mg. This molecule also displayed a plasma levels in data set [6] below 30 ng/mL. In addition, in data set [7], the “CYP induction profile (in words)” value is given as “profile similar to that of 45”.

For the molecule `CC(C)(NC(=O)c1nn(CCCCC(F)(F)F)c2ccccc12)c1cccc(C(N)=O)c1` [Compound 55, N-[2-(3-Carbamoylphenyl)propan-2-yl]-1-(5,5,5-trifluoropentyl)-1H-indazole-3-carboxamide], in data set [1], the EC50 is 156 ± 35 nM. In data set [2], this molecule gave a half-life at 1 μM of 1.7 h and a microsomal CLint at 1 μM of 6 µL/min/mg. Also, the concentration for a half-maximal effect (EC50) in data set [5] worked out at 341 ± 145 nM.

Turning to `CC(C)(NC(=O)c1nn(CCCCC#N)c2ccccc12)c1cccc(C(N)=O)c1` [Compound 56, N-[2-(3-Carbamoylphenyl)propan-2-yl]-1-(4-cyanobutyl)-1H-indazole-3-carboxamide], the EC50 in data set [1] was 731 ± 161 nM. In data set [2], this molecule had a half-life at 1 μM of 3 h and an intrinsic clearance (microsomal CLint) at 1 μM of 7 µL/min/mg. For the same molecule, in data set [5], the EC50 was 760 ± 175 nM.

On to `CC(C)(C#N)CCCn1nc(C(=O)NC(C)(C)c2cccc(C(N)=O)c2)c2ccccc21` [Compound 57, N-[2-(3-Carbamoylphenyl)propan-2-yl]-1-(4-cyano-4,4-dimethylbutyl)-1H-indazole-3-carboxamide], for which the EC50 in data set [1] was 742 ± 50 nM; in data set [5], above 10000 nM.

`CCOCCn1nc(C(=O)NC(C)(C)c2cccc(C(N)=O)c2)c2ccccc21` [Compound 58, N-[2-(3-Carbamoylphenyl)propan-2-yl]-1-(2-ethoxyethyl)-1H-indazole-3-carboxamide]: the EC50 in data set [1] and in data set [5] was above 10000 nM each time.

As to `COCCCn1nc(C(=O)NC(C)(C)c2cccc(C(N)=O)c2)c2ccccc21` [Compound 59, N-[2-(3-Carbamoylphenyl)propan-2-yl]-1-(3-methoxypropyl)-1H-indazole-3-carboxamide], the EC50 was above 10000 nM in data set [1] and 2560 ± 492 nM in data set [5].

Usually EC50 stands for the concentration at which the effect is half-maximal. As a reminder, the half-life is the time in which the quantity being followed falls by half. A high value points to slow decline. For orientation: microsomal CLint means a measure of how fast metabolising enzymes remove a compound, apart from limits set by blood flow. What is called Ki is a dissociation constant, usually derived from enzyme kinetics or from competition with a known ligand. Read a low Ki as a stronger hold on the target.
